Values after ≈ are worked out from the molar mass of the structure shown.
Experiments:
[1] = system: Haemophilus influenzae; test: Antibacterial activity against resistant Haemophilus influenzae 76.; type: functional
[2] = system: Haemophilus influenzae; test: Antibacterial activity against sensitive Haemophilus influenzae C.L.; type: functional
[3] = system: Staphylococcus epidermidis; test: Antibacterial activity against Staph. epidermis EP11; type: functional
[4] = system: Staphylococcus aureus; test: Antibacterial activity against methicillin resistant Staphylococcus aureus S13E.; type: functional
[5] = system: Staphylococcus aureus; test: Antibacterial activity against methicillin resistant Staphylococcus aureus X400; type: functional
[6] = system: Streptococcus pyogenes; test: Antibacterial activity against Streptococcus pyogenes C203.; type: functional
[7] = system: Staphylococcus aureus; test: Antibacterial activity against penicillin G sensitive Staphylococcus aureus V41; type: functional
[8] = system: Staphylococcus aureus; test: Antibacterial activity against penicillin G sensitive Staphylococcus aureus X1.1.; type: functional
[9] = system: Streptococcus pneumoniae; test: Antibacterial activity against Streptococcus pneumoniae Park.
[10] = system: Streptococcus; test: Antibacterial activity against Streptococcus group D X66.; type: functional
[11] = system: Streptococcus pyogenes; test: Antibacterial activity in mice infected with Streptococcus pyogenes C203; type: functional
[12] = system: Streptococcus pyogenes; test: Antibacterial activity in mice infected with Streptococcus pyogenes C203 by subcutaneous administration; type: functional
[13] = system: Staphylococcus aureus; test: Antibacterial activity in mice infected with Staphylococcus aureus 3055 by oral administration; type: functional
[14] = system: Staphylococcus aureus; test: Antibacterial activity in mice infected with Staphylococcus aureus 3055 by subcutaneous administration; type: functional
[15] = system: Streptococcus pneumoniae; test: Antibacterial activity in mice infected with Streptococcus pneumoniae Park1 by oral administration; type: functional
[16] = system: Streptococcus pneumoniae; test: Antibacterial activity in mice infected with Streptococcus pneumoniae Park1 by subcutaneous administration; type: functional
[17] = system: Streptococcus pneumoniae; test: Antibacterial activity in mice infected with Streptococcus pneumoniae Park1; type: functional
[18] = system: Streptococcus pyogenes; test: Antibacterial activity in mice infected with Streptococcus pyogenes C203 by oral administration; type: functional
[19] = system: Staphylococcus aureus; test: Antibacterial activity in mice infected with Staphylococcus aureus 3055; type: functional

Row | Compound | MIC [1] | MIC [2] | MIC [3] | MIC [4] | MIC [5] | MIC [6] | MIC [7] | MIC [8] | MIC [9] | MIC [10] | MIC [11] | ED50 [12] | ED50 [13] | ED50 [14] | ED50 [15] | ED50 [16] | MIC [17] | ED50 [18] | MIC [19]
1 | COc1ccc2c([C@@H](N)C(=O)NC3C(=O)N4C(C(=O)O)=C(C)CSC34)csc2c1 (some centres not stated) | 4 µg/mL (≈ 9.23 µM) | 32 µg/mL (≈ 73.8 µM) | 4 µg/mL (≈ 9.23 µM) | 4 µg/mL (≈ 9.23 µM) | 16 µg/mL (≈ 36.9 µM) | 0.125 µg/mL (≈ 0.288 µM) | 8 µg/mL (≈ 18.5 µM) | 1 µg/mL (≈ 2.31 µM) | 0.125 µg/mL (≈ 0.288 µM) | – | – | – | – | – | – | – | – | – | –
2 | CC1=C(C(=O)O)N2C(=O)C(NC(=O)[C@H](N)c3csc4cc(F)ccc34)C2SC1 (some centres not stated) | – | – | 4 µg/mL (≈ 9.49 µM) | 8 µg/mL (≈ 19 µM) | – | – | – | – | 0.5 µg/mL (≈ 1.19 µM) | 128 µg/mL (≈ 304 µM) | – | – | – | – | – | – | – | – | –
3 | CC1=C(C(=O)O)N2C(=O)C(NC(=O)[C@H](N)c3ccc4cccc(Cl)c4c3)C2SC1 (some centres not stated) | 0.5 µg/mL (≈ 1.16 µM) | 8 µg/mL (≈ 18.5 µM) | 1 µg/mL (≈ 2.32 µM) | 1 µg/mL (≈ 2.32 µM) | 4 µg/mL (≈ 9.26 µM) | 0.25 µg/mL (≈ 0.579 µM) | 1 µg/mL (≈ 2.32 µM) | 0.5 µg/mL (≈ 1.16 µM) | 0.25 µg/mL (≈ 0.579 µM) | 16 µg/mL (≈ 37 µM) | – | – | – | – | – | – | – | – | –
4 | CC1=C(C(=O)O)N2C(=O)C(NC(=O)[C@@H](N)c3cc4c(Cl)cccc4s3)C2SC1 (some centres not stated) | 1 µg/mL (≈ 2.28 µM) | 32 µg/mL (≈ 73.1 µM) | 2 µg/mL (≈ 4.57 µM) | 4 µg/mL (≈ 9.13 µM) | 16 µg/mL (≈ 36.5 µM) | 0.125 µg/mL (≈ 0.285 µM) | 4 µg/mL (≈ 9.13 µM) | 0.5 µg/mL (≈ 1.14 µM) | 0.5 µg/mL (≈ 1.14 µM) | 64 µg/mL (≈ 146 µM) | – | – | – | – | – | – | – | – | –
5 | CC1=C(C(=O)O)N2C(=O)C(NC(=O)[C@H](N)c3ccc4ccccc4c3)C2SC1 (some centres not stated) | 2 µg/mL (≈ 5.03 µM) | 8 µg/mL (≈ 20.1 µM) | 4 µg/mL (≈ 10.1 µM) | 8 µg/mL (≈ 20.1 µM) | 64 µg/mL (≈ 161 µM) | 0.125 µg/mL (≈ 0.315 µM) | 8 µg/mL (≈ 20.1 µM) | 0.5 µg/mL (≈ 1.26 µM) | 0.5 µg/mL (≈ 1.26 µM) | 64 µg/mL (≈ 161 µM) | 0.125 µg/mL (≈ 0.315 µM) | 2 mg/kg | 0.41 mg/kg | 0.07 mg/kg | > 25 mg/kg | 17.6 mg/kg | 1 µg/mL (≈ 2.52 µM) | 3.4 mg/kg | 0.5 µg/mL (≈ 1.26 µM)
6 | CC1=C(C(=O)O)N2C(=O)C(NC(=O)[C@@H](N)c3cc4cc(Cl)ccc4s3)C2SC1 (some centres not stated) | 4 µg/mL (≈ 9.13 µM) | 64 µg/mL (≈ 146 µM) | 2 µg/mL (≈ 4.57 µM) | 16 µg/mL (≈ 36.5 µM) | – | 0.125 µg/mL (≈ 0.285 µM) | 8 µg/mL (≈ 18.3 µM) | 0.25 µg/mL (≈ 0.571 µM) | 0.25 µg/mL (≈ 0.571 µM) | – | – | – | – | – | – | – | – | – | –
7 | CC1=C(C(=O)O)N2C(=O)C(NC(=O)[C@H](N)c3csc4c(F)cccc34)C2SC1 (some centres not stated) | 0.5 µg/mL (≈ 1.19 µM) | 4 µg/mL (≈ 9.49 µM) | 4 µg/mL (≈ 9.49 µM) | 8 µg/mL (≈ 19 µM) | 128 µg/mL (≈ 304 µM) | 0.125 µg/mL (≈ 0.297 µM) | 16 µg/mL (≈ 38 µM) | 0.5 µg/mL (≈ 1.19 µM) | 0.5 µg/mL (≈ 1.19 µM) | – | – | – | – | – | – | – | – | – | –
8 | COc1ccc2cc([C@@H](N)C(=O)NC3C(=O)N4C(C(=O)O)=C(C)CSC34)ccc2c1 (some centres not stated) | 4 µg/mL (≈ 9.36 µM) | 16 µg/mL (≈ 37.4 µM) | 4 µg/mL (≈ 9.36 µM) | 16 µg/mL (≈ 37.4 µM) | 64 µg/mL (≈ 150 µM) | 0.125 µg/mL (≈ 0.292 µM) | 16 µg/mL (≈ 37.4 µM) | 0.25 µg/mL (≈ 0.585 µM) | 0.125 µg/mL (≈ 0.292 µM) | – | – | – | – | – | – | – | – | – | –
9 | CC1=C(C(=O)O)N2C(=O)C(NC(=O)[C@@H](N)c3cc4c(s3)CCCC4)C2SC1 (some centres not stated) | 4 µg/mL (≈ 9.82 µM) | 16 µg/mL (≈ 39.3 µM) | 2 µg/mL (≈ 4.91 µM) | 8 µg/mL (≈ 19.6 µM) | – | 0.06 µg/mL (≈ 0.147 µM) | 16 µg/mL (≈ 39.3 µM) | 0.25 µg/mL (≈ 0.613 µM) | 0.25 µg/mL (≈ 0.613 µM) | 64 µg/mL (≈ 157 µM) | – | – | – | – | – | – | – | – | –
10 | CC1=C(C(=O)O)N2C(=O)C(NC(=O)[C@H](N)c3ccc4cc(Cl)ccc4c3)C2SC1 (some centres not stated) | 2 µg/mL (≈ 4.63 µM) | 32 µg/mL (≈ 74.1 µM) | 4 µg/mL (≈ 9.26 µM) | 8 µg/mL (≈ 18.5 µM) | 64 µg/mL (≈ 148 µM) | 0.06 µg/mL (≈ 0.139 µM) | 8 µg/mL (≈ 18.5 µM) | 0.25 µg/mL (≈ 0.579 µM) | 0.25 µg/mL (≈ 0.579 µM) | 64 µg/mL (≈ 148 µM) | – | – | – | – | – | – | – | – | –
